Several values for one entry are separate records, joined by “and”; a condition that tells them apart may be missing. Equal values may be shown once. Toxic doses and inconclusive results are not listed. Rule as the data show it: active = T/C of 150% or more; inactive = T/C below 125%.
Test system: L1210 leukemia ip in BDF1 mice, survival T/C
Experiment: NCI In Vivo Anticancer Drug Screen. Data for tumor model L1210 Leukemia (intraperitoneal) in B6D2F1 (BDF1) mice
Conditions: endpoint: mean survival time, higher = longer survival
Method in brief: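 Read-out is survival time, reported as the treated-group measurement over the vehicle-control measurement.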

[1] = dose: 100.0 mg/kg/injection, schedule: Q01DX009 (ip), vehicle: Klucel (hydroxypropylcellulose) (HPC)
[2] = dose: 200.0 mg/kg/injection, schedule: Q01DX009 (ip), vehicle: Klucel (hydroxypropylcellulose) (HPC)
[3] = dose: 400.0 mg/kg/injection, schedule: Q01DX009 (ip), vehicle: Klucel (hydroxypropylcellulose) (HPC)
[4] = dose: 100.0 mg/kg/injection, schedule: Q04DX002 (ip), vehicle: Klucel (hydroxypropylcellulose) (HPC)
[5] = dose: 400.0 mg/kg/injection, schedule: Q04DX002 (ip), vehicle: Klucel (hydroxypropylcellulose) (HPC)
[6] = dose: 100.0 mg/kg/injection, schedule: Q04DX003 (ip), vehicle: other
[7] = dose: 200.0 mg/kg/injection, schedule: Q04DX003 (ip), vehicle: other
[8] = dose: 100.0 mg/kg/injection, schedule: Q04DX003 (ip), vehicle: saline with Tween-80
[9] = dose: 200.0 mg/kg/injection, schedule: Q04DX003 (ip), vehicle: saline with Tween-80

Measured: T/C

CCCC[n+]1cccc(C#N)c1
inactive: dose: 18.75 mg/kg/injection, schedule: Q01DX009 (ip), vehicle: saline 92 % of control | dose: 37.5 mg/kg/injection, schedule: Q01DX009 (ip), vehicle: saline 101 % of control | dose: 37.5 mg/kg/injection, schedule: Q04DX003 (ip), vehicle: saline 93 % of control | dose: 75.0 mg/kg/injection, schedule: Q01DX001 (ip), vehicle: saline 98 % of control | dose: 75.0 mg/kg/injection, schedule: Q01DX009 (ip), vehicle: saline 90 % of control | dose: 75.0 mg/kg/injection, schedule: Q04DX003 (ip), vehicle: saline 93 % of control | dose: 150.0 mg/kg/injection, schedule: Q01DX001 (ip), vehicle: saline 95 % of control | dose: 150.0 mg/kg/injection, schedule: Q04DX003 (ip), vehicle: saline 91 % of control

c1ccc(CNC(Cc2ccccc2)c2ccc(OCc3ccccc3)cc2)cc1 (centres undefined)
inactive: [1] 93 % of control | [2] 89 % of control | [3] 89 % of control

O=C(Nc1ccc(Cl)c(Cl)c1)C(Cl)Cl
inactive: [4] 109 % of control | [5] 103 % of control

Cc1nc(N)nc(Nc2ccc(CCO)cc2)c1Br
inactive: dose: 100.0 mg/kg/injection, schedule: Q01DX Z (ip), vehicle: methylcellulose (MC) 103 % of control | dose: 200.0 mg/kg/injection, schedule: Q01DX Z (ip), vehicle: methylcellulose (MC) 98 % of control

O=C(O)COc1ccc(Br)cn1
inactive: [4] 104 % of control | dose: 200.0 mg/kg/injection, schedule: Q04DX002 (ip), vehicle: Klucel (hydroxypropylcellulose) (HPC) 101 % of control | [5] 104 % of control

CC(C)N(C(=O)CSc1c(Cl)c(Cl)c(Cl)c(Cl)c1Cl)C(C)C
inactive: dose: 100.0 mg/kg/injection, schedule: Q04DX002 (ip), vehicle: other 107 % of control and 113 % of control | [6] 89 % of control and 91 % of control | dose: 200.0 mg/kg/injection, schedule: Q04DX002 (ip), vehicle: other 95 % of control and 106 % of control | [7] 96 % of control and 91 % of control | dose: 400.0 mg/kg/injection, schedule: Q04DX003 (ip), vehicle: other 94 % of control

ClC1C(Cl)C(Cl)C(Cl)C(Cl)C1Cl (centres undefined)
inactive: dose: 50.0 mg/kg/injection, schedule: Q01DX009 (ip), vehicle: saline 103 % of control | dose: 100.0 mg/kg/injection, schedule: Q01DX009 (ip), vehicle: saline 103 % of control | dose: 200.0 mg/kg/injection, schedule: Q01DX009 (ip), vehicle: saline 108 % of control

CCC(C)(C)c1ccc(OCCOS(=O)(=O)c2ccc(C)cc2)cc1
inactive: dose: 100.0 mg/kg/injection, schedule: Q01DX009 (ip), vehicle: saline sonified 96 % of control | dose: 200.0 mg/kg/injection, schedule: Q01DX009 (ip), vehicle: saline sonified 108 % of control | dose: 400.0 mg/kg/injection, schedule: Q01DX009 (ip), vehicle: saline sonified 97 % of control

CCSC1OC(C(COC(C)=O)OC(C)=O)C(OC(C)=O)C1NC(C)=S (centres undefined)
inactive: dose: 50.0 mg/kg/injection, schedule: Q01DX001 (ip), vehicle: saline 97 % of control | dose: 100.0 mg/kg/injection, schedule: Q01DX001 (ip), vehicle: saline 103 % of control | dose: 200.0 mg/kg/injection, schedule: Q01DX001 (ip), vehicle: saline 103 % of control | dose: 400.0 mg/kg/injection, schedule: Q01DX001 (ip), vehicle: saline 100 % of control

COc1cc(N(CCCl)CCCl)ccc1C=Nc1ccccc1-n1ccnc1
inactive: dose: 68.8 mg/kg/injection, schedule: Q04DX002 (ip), vehicle: Klucel (hydroxypropylcellulose) (HPC) 102 % of control | dose: 137.5 mg/kg/injection, schedule: Q04DX002 (ip), vehicle: Klucel (hydroxypropylcellulose) (HPC) 91 % of control | dose: 275.0 mg/kg/injection, schedule: Q04DX002 (ip), vehicle: Klucel (hydroxypropylcellulose) (HPC) 102 % of control

CCOC(=O)C(C)(C)CN(CC(C)(C)C(=O)OCC)C(C)(C)C
inactive: dose: 100.0 mg/kg/injection, schedule: Q01DX001 (ip), vehicle: saline sonified 87 % of control | dose: 200.0 mg/kg/injection, schedule: Q01DX001 (ip), vehicle: saline sonified 93 % of control | dose: 400.0 mg/kg/injection, schedule: Q01DX001 (ip), vehicle: saline sonified 91 % of control

O=C1c2ccccc2-c2cc(Br)c(N=C(NO)C(F)(F)F)cc21
inactive: dose: 100.0 mg/kg/injection, schedule: Q01DX001 (ip), vehicle: carboxymethylcellulose (CMC) 115 % of control | dose: 200.0 mg/kg/injection, schedule: Q01DX001 (ip), vehicle: carboxymethylcellulose (CMC) 105 % of control | dose: 400.0 mg/kg/injection, schedule: Q01DX001 (ip), vehicle: carboxymethylcellulose (CMC) 108 % of control

CC(C)(C)C1CCC(N=C(N)CSS(=O)(=O)O)CC1 (centres undefined)
inactive: dose: 12.5 mg/kg/injection, schedule: Q04DX002 (ip), vehicle: Klucel (hydroxypropylcellulose) (HPC) 97 % of control | dose: 25.0 mg/kg/injection, schedule: Q04DX002 (ip), vehicle: Klucel (hydroxypropylcellulose) (HPC) 95 % of control

COc1ccccc1NS(=O)(=O)c1ccc(Cl)cc1
inactive: [1] 103 % of control | [2] 112 % of control | [3] 103 % of control

COC(=O)C(N)C(C)C (centres undefined)
inactive: dose: 25.0 mg/kg/injection, schedule: Q01DX009 (ip), vehicle: water 100 % of control | dose: 25.0 mg/kg/injection, schedule: Q04DX003 (ip), vehicle: water 106 % of control | dose: 50.0 mg/kg/injection, schedule: Q01DX009 (ip), vehicle: water 102 % of control | dose: 50.0 mg/kg/injection, schedule: Q04DX003 (ip), vehicle: water 104 % of control | dose: 100.0 mg/kg/injection, schedule: Q01DX009 (ip), vehicle: water 102 % of control | dose: 100.0 mg/kg/injection, schedule: Q04DX003 (ip), vehicle: water 114 % of control | dose: 200.0 mg/kg/injection, schedule: Q01DX009 (ip), vehicle: water 103 % of control | dose: 200.0 mg/kg/injection, schedule: Q04DX003 (ip), vehicle: water 101 % of control | dose: 400.0 mg/kg/injection, schedule: Q01DX009 (ip), vehicle: water 100 % of control | dose: 400.0 mg/kg/injection, schedule: Q04DX003 (ip), vehicle: water 104 % of control

CCOC(=O)c1cc2ccccc2c2ccccc12
inactive: [8] 98 % of control | [9] 95 % of control | dose: 400.0 mg/kg/injection, schedule: Q04DX003 (ip), vehicle: saline with Tween-80 98 % of control

O=C(c1ccccc1[N+](=O)[O-])C(Br)C(Br)c1ccc2c(c1)OCO2 (centres undefined)
inactive: dose: 100.0 mg/kg/injection, schedule: Q01DX009 (ip), vehicle: saline with Tween-80 97 % of control and 87 % of control | dose: 200.0 mg/kg/injection, schedule: Q01DX009 (ip), vehicle: saline with Tween-80 94 % of control and 95 % of control | dose: 400.0 mg/kg/injection, schedule: Q01DX009 (ip), vehicle: saline with Tween-80 97 % of control

COc1ccc(C(=O)N(N)C2CCCCC2)cc1
inactive: [8] 93 % of control | [9] 102 % of control

CCOC(=O)C1(Cl)OC(Cl)(Cl)C(Cl)C1Cl (centres undefined)
inactive: dose: 10.0 mg/kg/injection, schedule: Q01DX001 (ip), vehicle: saline 92 % of control | dose: 20.0 mg/kg/injection, schedule: Q01DX001 (ip), vehicle: saline 90 % of control | dose: 40.0 mg/kg/injection, schedule: Q01DX001 (ip), vehicle: saline 103 % of control | dose: 80.0 mg/kg/injection, schedule: Q01DX001 (ip), vehicle: saline 90 % of control

NC(Cc1c[nH]c2ccc(F)cc12)C(=O)O (centres undefined)
inactive: dose: 100.0 mg/kg/injection, schedule: Q01DX001 (ip), vehicle: other 95 % of control | [6] 119 % of control | dose: 200.0 mg/kg/injection, schedule: Q01DX001 (ip), vehicle: other 95 % of control | [7] 102 % of control | dose: 400.0 mg/kg/injection, schedule: Q01DX001 (ip), vehicle: other 89 % of control
